For the first test, the system named is a variety of test species. Description: Post-emergence herbicidal activity. The class given is in vivo. Also on record: key to ABUTH (Abutilon theophrasti) damage score / AMARE (Amaranthus retroflexus) damage score / ALOMY (Alopecurus myosuroides) damage score / ECHCG (Echinochloa crus-galli) damage score / ZEAMX (Zea mays) damage score / SOLNI (Solanum nigrum) damage score: 0 = no damage to plant, 5 = total damage to plant. The following applies: rate 250 g/ha, evaluated after 13 days. The method in brief:
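Plants grown for 8 days in pots were sprayed post-emergence with compound in acetone/water (50:50) containing 0.5% Tween 20. They were kept in a glasshouse at 24/16 °C day/night, 14 h light, 65% humidity, watered twice daily. Damage was scored after 13 days (0 none to 5 total).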
Regarding `COC1=C(C)C(=O)N(c2cc(C(F)(F)F)c(OC3CCC3)cn2)C1O` (centres unmarked) [AD75], the “ABUTH (Abutilon theophrasti) damage score” value (“ABUTH” below) is recorded as 5, the “ALOMY (Alopecurus myosuroides) damage score” value (“ALOMY” for short) is listed as 4, the “AMARE (Amaranthus retroflexus) damage score” value (shortened to “AMARE”) was 5 and the “ECHCG (Echinochloa crus-galli) damage score” value (shortened to “ECHCG”) is 2. In addition, the “SETFA (Setaria faberi) damage score” value was 4 and the “ZEAMX (Zea mays) damage score” value is on record as 1.
Take `C=C(C)COc1cnc(N2C(=O)C(C)=C(OC)C2O)cc1C(F)(F)F` (centres unmarked) [AD77]: the “ABUTH” value was found to be 5, the “ALOMY” value is reported as 3, the “AMARE” value is listed as 5 and the “ECHCG” value came to 1. The “SETFA (Setaria faberi) damage score” value was 4 and the “ZEAMX (Zea mays) damage score” value amounted to 0.

Still in this test, the particulars now being: rate 1000 g/ha, evaluated after 13 days.
In the case of `CCC1=C(Br)C(O)N(c2cc(C(C)(C)C#N)ncn2)C1=O` (racemic) [CB2], the “ABUTH” value was determined as 3, the “ALOMY” value was found to be 1, the “AMARE” value is recorded as 3 and the “ECHCG” value is 1. Moreover, the “SETFA (Setaria faberi) damage score” value was 0 and the “ZEAMX (Zea mays) damage score” value was found to be 0.
Regarding `COC1=C(C)C(=O)N(c2cc(C(F)(F)F)ncn2)C1O` (racemic) [CD4], the “ABUTH” value is recorded as 5, the “ALOMY” value was determined as 5, the “AMARE” value was found to be 3 and the “ECHCG” value is given as 5. Moreover, the “SETFA (Setaria faberi) damage score” value is 5 and the “ZEAMX (Zea mays) damage score” value was found to be 1.
In the case of `COC1=C(C)C(=O)N(c2cc(C(F)(F)F)c(-c3ccoc3)cn2)C1O` (centres unmarked) [AD124], the “ABUTH” value stood at 2, the “ALOMY” value came out at 2, the “AMARE” value was found to be 5 and the “ECHCG” value is recorded as 2. The “SETFA (Setaria faberi) damage score” value is 4 and the “ZEAMX (Zea mays) damage score” value is 0.
On to `COC1=C(C)C(=O)N(c2cc(C)c(-c3ccc(C)c([N+](=O)[O-])c3)cn2)C1O` (centres unmarked) [AD119], for which the “ABUTH” value is reported as 2, the “ALOMY” value turned out to be 2, the “AMARE” value was determined as 5 and the “ECHCG” value is listed as 1. The “SETFA (Setaria faberi) damage score” value is 1 and the “ZEAMX (Zea mays) damage score” value came to 0.
With `CC1=C(Cl)C(O)N(c2nccc(C(C)(C)C)n2)C1=O` (racemic) [DA1], the “ABUTH” value turned out to be 4, the “ALOMY” value came to 4, the “AMARE” value was 3 and the “ECHCG” value is recorded as 4. Besides, the “SETFA (Setaria faberi) damage score” value was determined as 5 and the “ZEAMX (Zea mays) damage score” value was 0.
For `CC1=C(Cl)C(O)N(c2cc(Br)ccn2)C1=O` (centres unmarked) [AA31], the “ALOMY” value was 1, the “AMARE” value was found to be 5, the “ECHCG” value came out at 2 and the “SETFA (Setaria faberi) damage score” value turned out to be 3. Also, the “SOLNI (Solanum nigrum) damage score” value is given as 5 and the “ZEAMX (Zea mays) damage score” value was found to be 0.
For the compound `COC1=C(C)C(=O)N(c2cc(C)c(-c3ccc4c(c3)OCO4)cn2)C1O` (centres unmarked) [AD112], the “ABUTH” value was 4, the “ALOMY” value was 2, the “AMARE” value is on record as 5 and the “ECHCG” value came to 3. Moreover, the “SETFA (Setaria faberi) damage score” value was determined as 3 and the “ZEAMX (Zea mays) damage score” value was determined as 1.
As to `COC1=C(Br)C(=O)N(c2cc(C(C)(C)C)ncn2)C1O` (racemic) [CE1], the “ABUTH” value is listed as 4, the “ALOMY” value is listed as 2, the “AMARE” value is reported as 5 and the “ECHCG” value was 3. Also, the “SETFA (Setaria faberi) damage score” value is recorded as 4 and the “ZEAMX (Zea mays) damage score” value was 1.
In the case of `COC1=C(C)C(=O)N(c2cc(C)c(-c3ccoc3)cn2)C1O` (centres unmarked) [AD113], the “ABUTH” value was determined as 3, the “ALOMY” value was determined as 2, the “AMARE” value was 5 and the “ECHCG” value stood at 2. Besides, the “SETFA (Setaria faberi) damage score” value is on record as 1 and the “ZEAMX (Zea mays) damage score” value is given as 1.
As to `COC1=C(C)C(=O)N(c2cc(C)c(-c3ccsc3)cn2)C1O` (centres unmarked) [AD61], the “ABUTH” value is reported as 5, the “ALOMY” value amounted to 1, the “AMARE” value is reported as 5 and the “ECHCG” value was found to be 3. Moreover, the “SETFA (Setaria faberi) damage score” value was 4 and the “ZEAMX (Zea mays) damage score” value is reported as 1.
For the compound `COC1=C(C)C(=O)N(c2cc(C(F)(F)F)c(OCc3ccccc3)cn2)C1O` (centres unmarked) [AD82], the “ABUTH” value is 4, the “ALOMY” value was found to be 2, the “AMARE” value stood at 5 and the “ECHCG” value came to 3. In addition, the “SETFA (Setaria faberi) damage score” value turned out to be 5 and the “ZEAMX (Zea mays) damage score” value stood at 1.
As for `COC1=C(C)C(=O)N(c2nccc(C(F)(F)F)c2Br)C1O` (centres unmarked) [AD25], the “ABUTH” value is 1, the “ALOMY” value amounted to 1, the “AMARE” value worked out at 2 and the “ECHCG” value stood at 1. Further, the “SETFA (Setaria faberi) damage score” value is recorded as 2 and the “ZEAMX (Zea mays) damage score” value stood at 1.
For `COC1=C(C)C(=O)N(c2cc(C(C)C)c(OC)nn2)C1O` (centres unmarked) [BD5], the “ABUTH” value stood at 5, the “ALOMY” value amounted to 5, the “AMARE” value was determined as 5 and the “ECHCG” value worked out at 5. For the same compound, the “SETFA (Setaria faberi) damage score” value amounted to 5 and the “ZEAMX (Zea mays) damage score” value was determined as 3.
With `COC1=C(C)C(=O)N(c2cc(C(C)C)c(C(=O)NC(C)(C)C)cn2)C1O` (centres unmarked) [AD89], the “ABUTH” value was 5, the “ALOMY” value was 5, the “AMARE” value is listed as 5 and the “ECHCG” value was 5. Further, the “SETFA (Setaria faberi) damage score” value is on record as 5 and the “ZEAMX (Zea mays) damage score” value amounted to 3.
In the case of `CC1=C(Cl)C(O)N(c2cc(C(C)C)c(C(=O)NC(C)(C)C)cn2)C1=O` (centres unmarked) [AA49], the “ABUTH” value is 3, the “ALOMY” value was 2, the “ECHCG” value is recorded as 1 and the “SETFA (Setaria faberi) damage score” value came to 3. Further, the “ZEAMX (Zea mays) damage score” value was found to be 0.
For `COC1=C(C)C(=O)N(c2cc(C(F)(F)F)c(Br)cn2)C1O` (centres unmarked) [AD31, 1-[5-bromo-4-(trifluoromethyl)-2-pyridyl]-2-hydroxy-3-methoxy-4-methyl-2H-pyrrol-5-one], the “ABUTH” value was 5, the “ALOMY” value is recorded as 5, the “AMARE” value was 5 and the “ECHCG” value is listed as 5. Further, the “SETFA (Setaria faberi) damage score” value amounted to 4 and the “ZEAMX (Zea mays) damage score” value is 1.
As to `CCc1cc(N2C(=O)C(C)=C(OC)C2O)ncc1-c1cccc(C#N)c1` (centres unmarked) [AD99], the “ABUTH” value was 5, the “ALOMY” value was 1, the “AMARE” value stood at 5 and the “ECHCG” value amounted to 5. Moreover, the “SETFA (Setaria faberi) damage score” value is reported as 4 and the “ZEAMX (Zea mays) damage score” value stood at 1.
Turning to `COCCCOc1cnc(N2C(=O)C(C)=C(OC)C2O)cc1C(F)(F)F` (centres unmarked) [AD83], the “ABUTH” value came to 5, the “ALOMY” value is 4, the “AMARE” value amounted to 5 and the “ECHCG” value is on record as 5. Further, the “SETFA (Setaria faberi) damage score” value was 5 and the “ZEAMX (Zea mays) damage score” value came to 1.
As for `COC1=C(C)C(=O)N(c2cc(C)c(-c3ccc(C#N)cc3)cn2)C1O` (centres unmarked) [AD111], the “ABUTH” value is listed as 5, the “ALOMY” value came out at 2, the “AMARE” value was 5 and the “ECHCG” value turned out to be 1. In addition, the “SETFA (Setaria faberi) damage score” value is listed as 4 and the “ZEAMX (Zea mays) damage score” value is listed as 1.
`COc1nnc(N2C(=O)C(C)=C(Cl)C2O)cc1C` (centres unmarked) [BA1]: the “ABUTH” value amounted to 2, the “ALOMY” value is 2, the “AMARE” value stood at 3 and the “ECHCG” value is 1. For the same compound, the “SETFA (Setaria faberi) damage score” value turned out to be 2 and the “ZEAMX (Zea mays) damage score” value is recorded as 1.
Turning to `CCC1=C(Cl)C(O)N(c2cc(C(F)(F)F)ccn2)C1=O` (centres unmarked) [AA43], the “ABUTH” value turned out to be 2, the “ALOMY” value came out at 1, the “AMARE” value worked out at 2 and the “ECHCG” value stood at 5. Also, the “SETFA (Setaria faberi) damage score” value is reported as 3 and the “ZEAMX (Zea mays) damage score” value was 1.
For the compound `COC1=C(C)C(=O)N(c2cc(Cl)c(Br)cn2)C1O` (centres unmarked) [AD69], the “ABUTH” value is listed as 0, the “ALOMY” value came out at 2, the “AMARE” value is listed as 4 and the “ECHCG” value stood at 3. Also, the “SETFA (Setaria faberi) damage score” value is 5 and the “ZEAMX (Zea mays) damage score” value is 1.

The record behind these values is US9611248B2, “Chemical compounds” (Syngenta Participations AG, priority 2013, dated 2017).
